Consider 19 molecules from patent publication US9957247B2, “SecA inhibitors and methods of making and using thereof” (Georgia State University Research Foundation, Inc., priority 2012, dated 2018).

The subject of one assay is S. aureus Mu50. The assay is described as follows: Bacteriostatic effect, S. aureus Mu50. The following applies: for MIC: Staphylococcus aureus; for Bacteriostatic MIC95, S. aureus Mu50: Table 2.
For the next assay, the system named is B. anthracis Sterne. In words: microbe, parasite or virus in culture. Type of assay: cell-based. The conditions noted are these: for MIC: Bacillus anthracis, read-out: Bacteriostatic MIC95, B. anthracis Sterne.
The test system of a further assay is B. subtilis 168. In words: Bacteriostatic effect, liquid microdilution, B. subtilis 168. The format is cell-based. The following applies: Bacillus subtilis, Example 2. (In broth dilution the organism is exposed to a series of concentrations in liquid medium.)
In a further assay the target is EcSecA (Escherichia coli, UniProt P10408). In words: cell-based.
The target in another assay is BsSecA (Bacillus subtilis, UniProt P28366). In words: cell-based. Details: species or system B. subtilis. The following applies: Ion channel, IC50, BsSecA, Table 5.
A further assay concerns the target EcSecA N68 (Escherichia coli, UniProt P10408). The assay is described as follows: biochemical. Type of assay: biochemical, E. coli.
Setting [1] is: MU50, read-out: Bacteriostatic MIC95, S. aureus Mu50, Table 2.
[2] abbreviates: MU50, read-out: Bacteriostatic effect MIC, S. aureus Mu50, Table 10 and Example 4.
Where [3] appears, read: Ion channel, IC50, EcSecA, Table 5.
The mark [4] stands for this setting: MU50, read-out: MIC95 against drug resistant S. aureus Mu50.

Converted amounts (≈) assume the structure as drawn. Where two headings read alike, the source gives them in different places.

BsSecA, sequence (P28366 whole entry): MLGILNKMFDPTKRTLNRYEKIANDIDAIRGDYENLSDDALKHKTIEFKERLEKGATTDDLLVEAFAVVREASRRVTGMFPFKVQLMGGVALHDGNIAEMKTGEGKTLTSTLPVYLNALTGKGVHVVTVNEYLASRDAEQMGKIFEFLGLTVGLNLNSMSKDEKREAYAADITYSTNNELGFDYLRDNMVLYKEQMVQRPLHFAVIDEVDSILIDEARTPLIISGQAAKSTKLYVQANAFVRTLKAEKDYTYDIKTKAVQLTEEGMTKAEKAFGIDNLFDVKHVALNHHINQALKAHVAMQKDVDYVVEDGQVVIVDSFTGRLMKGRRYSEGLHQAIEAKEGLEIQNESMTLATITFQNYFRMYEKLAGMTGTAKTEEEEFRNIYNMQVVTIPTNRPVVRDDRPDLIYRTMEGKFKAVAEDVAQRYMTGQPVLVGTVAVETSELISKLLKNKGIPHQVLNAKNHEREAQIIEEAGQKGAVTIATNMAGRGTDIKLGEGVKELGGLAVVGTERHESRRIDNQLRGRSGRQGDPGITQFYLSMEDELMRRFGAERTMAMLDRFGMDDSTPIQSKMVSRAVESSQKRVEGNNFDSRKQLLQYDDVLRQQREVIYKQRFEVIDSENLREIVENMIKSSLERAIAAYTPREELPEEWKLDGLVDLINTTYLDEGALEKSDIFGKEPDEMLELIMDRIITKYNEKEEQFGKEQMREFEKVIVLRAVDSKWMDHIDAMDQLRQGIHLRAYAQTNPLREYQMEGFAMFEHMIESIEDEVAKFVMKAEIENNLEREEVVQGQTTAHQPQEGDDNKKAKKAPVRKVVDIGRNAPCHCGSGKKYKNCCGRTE
EcSecA, sequence (P10408 whole entry): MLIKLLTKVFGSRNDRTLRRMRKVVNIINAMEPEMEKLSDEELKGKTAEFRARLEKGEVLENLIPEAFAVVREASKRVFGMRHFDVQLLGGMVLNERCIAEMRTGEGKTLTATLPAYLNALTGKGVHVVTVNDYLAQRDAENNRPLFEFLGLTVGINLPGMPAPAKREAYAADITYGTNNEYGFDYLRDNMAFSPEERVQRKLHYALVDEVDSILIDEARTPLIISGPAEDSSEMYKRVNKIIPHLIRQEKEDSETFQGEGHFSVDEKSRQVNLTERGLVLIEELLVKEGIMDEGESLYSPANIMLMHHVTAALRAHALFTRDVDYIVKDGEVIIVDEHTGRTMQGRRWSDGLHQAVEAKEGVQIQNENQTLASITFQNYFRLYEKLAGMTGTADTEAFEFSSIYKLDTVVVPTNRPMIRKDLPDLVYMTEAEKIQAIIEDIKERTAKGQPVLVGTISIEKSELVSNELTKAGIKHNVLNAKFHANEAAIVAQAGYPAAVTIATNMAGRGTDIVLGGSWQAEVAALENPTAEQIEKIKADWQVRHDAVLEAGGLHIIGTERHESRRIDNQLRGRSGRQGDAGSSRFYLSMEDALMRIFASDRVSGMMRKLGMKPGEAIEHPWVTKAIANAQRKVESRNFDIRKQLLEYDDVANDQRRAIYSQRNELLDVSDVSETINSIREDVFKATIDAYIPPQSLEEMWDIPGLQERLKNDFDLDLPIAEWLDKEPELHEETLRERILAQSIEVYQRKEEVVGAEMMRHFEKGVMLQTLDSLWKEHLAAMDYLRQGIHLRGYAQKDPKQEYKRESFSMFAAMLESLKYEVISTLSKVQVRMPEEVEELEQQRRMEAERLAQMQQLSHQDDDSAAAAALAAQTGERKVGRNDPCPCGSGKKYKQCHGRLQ
EcSecA N68, sequence (P10408 1-610): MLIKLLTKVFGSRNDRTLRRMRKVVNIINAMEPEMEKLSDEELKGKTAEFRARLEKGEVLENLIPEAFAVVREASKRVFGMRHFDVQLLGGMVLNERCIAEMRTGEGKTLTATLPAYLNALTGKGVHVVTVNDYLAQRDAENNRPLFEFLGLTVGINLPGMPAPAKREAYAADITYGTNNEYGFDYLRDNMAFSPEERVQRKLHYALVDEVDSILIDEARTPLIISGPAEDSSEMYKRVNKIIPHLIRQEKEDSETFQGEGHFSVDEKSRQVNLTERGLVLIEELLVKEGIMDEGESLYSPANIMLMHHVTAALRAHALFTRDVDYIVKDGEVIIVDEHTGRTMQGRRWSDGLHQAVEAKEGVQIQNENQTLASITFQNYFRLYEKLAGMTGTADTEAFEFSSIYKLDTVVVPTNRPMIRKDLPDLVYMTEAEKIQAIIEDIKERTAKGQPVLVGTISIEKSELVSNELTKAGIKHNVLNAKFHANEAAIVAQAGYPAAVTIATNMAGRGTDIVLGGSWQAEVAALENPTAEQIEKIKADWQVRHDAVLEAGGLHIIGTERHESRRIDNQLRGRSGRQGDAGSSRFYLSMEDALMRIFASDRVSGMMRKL

With `CC1(C)S[C@@H]2[C@H](NC(=O)[C@H](N)c3ccccc3)C(=O)N2[C@H]1C(=O)O` [Ampicillin], the MIC in the assay with S. aureus Mu50 (setting [1]) is 7.8 µg/mL; with S. aureus Mu50 (setting [2]) it was 1000 µg/mL; in the assay on B. anthracis Sterne, more than 20 µg/mL.

For `O=C(N[C@H](CO)[C@H](O)c1ccc([N+](=O)[O-])cc1)C(Cl)Cl` [Chloramphenic], the “Bacteriostatic MIC95, S. aureus Mu50” value with S. aureus Mu50 was more than 40 µg/mL. The “Bacteriostatic MIC95, B. anthracis Sterne” value in the assay on B. anthracis Sterne was 10 µg/mL.

Regarding `Oc1ccc2c(c1)Oc1cc(O)ccc1C2C1CCCC1` [Compound 22a, 9-Cyclopentyl-9H-xanthene-3,6-diol], the MIC against B. subtilis 168 is 25 µM (≈ 7.06 µg/mL). The IC50 against EcSecA (setting [3]) amounted to 3400 nM; against BsSecA it was 3000 nM.

In the assay on B. subtilis 168, `CC(C)C1c2ccc(O)cc2Oc2cc(O)ccc21` [Compound 22b, 9-Isopropyl-9H-xanthene-3,6-diol] had an MIC of 75 µM (≈ 19.2 µg/mL). In addition, the IC50 against EcSecA worked out at 4300 nM; at BsSecA, 4900 nM.

In the assay on B. subtilis 168, `CCCCCCC1c2ccc(O)cc2Oc2cc(O)ccc21` [Compound 22c, 9-Hexyl-9H-xanthene-3,6-diol] returned an MIC of 13 µM (≈ 3.88 µg/mL). Besides, the IC50 against EcSecA (setting [3]) was found to be 2300 nM; against BsSecA it was 2500 nM.

Take `Oc1c(Br)cc2c(c1Br)Oc1c(cc(Br)c(O)c1Br)C2C1CCCC1` [Compound 23a, 2,4,5,7-Tetrabromo-9-cyclopentyl-9H-xanthene-3,6-diol]: the MIC in the assay on B. subtilis 168 stood at 22 µM (≈ 13.2 µg/mL). The IC50 against EcSecA amounted to 2300 nM; at BsSecA, 2400 nM.

With `Oc1c(I)cc2c(c1I)Oc1c(cc(I)c(O)c1I)C2C1CCCC1` [Compound 23b, 9-Cyclopentyl-2,4,5,7-tetraiodo-9H-xanthene-3,6-diol], in the assay on B. subtilis 168, the MIC came out at 6 µM (≈ 4.72 µg/mL). For the same molecule, the IC50 is 2500 nM against EcSecA and 3800 nM at BsSecA.

Take `Oc1cc2c(cc1I)C(C1CCCC1)c1cc(I)c(O)c(I)c1O2` (stereo not shown) [Compound 23c]: in the assay with B. subtilis 168, the MIC is 6 µM (≈ 3.96 µg/mL). The IC50 at EcSecA stood at 2200 nM; against BsSecA, 2800 nM.

The molecule `CC(C)C1c2cc(I)c(O)c(I)c2Oc2c1cc(I)c(O)c2I` [Compound 23d, 2,4,5,7-Tetraiodo-9-isopropyl-9H-xanthene-3,6-diol] returned an MIC with B. subtilis 168 of 6 µM (≈ 4.56 µg/mL). For the same molecule, the figures for the IC50 against EcSecA and against BsSecA were 2800 nM and 2500 nM, respectively.

Turning to `CN(C)c1ccc2c(c1)Oc1cc(N(C)C)ccc1C2C1CCCC1` [Compound 30, 9-Cyclopentyl-N3,N3,N6,N6-tetramethyl-9H-xanthene-3,6-diamine], the “Inhibition of EcSecA N68 ATPase, initial screening” value on EcSecA N68 (100 μM, FIG. 1) was “weak or no activity”.

As for `O=C(O)c1ccccc1-c1c2ccc(=O)c(I)c-2oc2c(I)c(O)ccc12` [DI, Diiodofluorescein, reference compound], the IC50 at EcSecA N68 (read-out: IC50, EcN68 SecA ATPase (unregulated ATPase)) came out at 30000 nM.

Regarding `CC[C@H]1OC(=O)[C@H](C)[C@@H](O[C@H]2C[C@@](C)(OC)[C@@H](O)[C@H](C)O2)[C@H](C)[C@@H](O[C@@H]2O[C@H](C)C[C@H](N(C)C)[C@H]2O)[C@](C)(O)C[C@@H](C)C(=O)[C@H](C)[C@@H](O)[C@]1(C)O` [Erythromycin], the MIC in the assay on S. aureus Mu50 (setting [1]) was more than 500 µg/mL; with S. aureus Mu50 (setting [2]) it was more than 1250 µg/mL; in the assay with S. aureus Mu50 (setting [4]) it was more than 100 µM; in the assay on B. anthracis Sterne, 0.3 µg/mL (≈ 0.409 µM).

In the case of `NC[C@H]1O[C@H](O[C@H]2[C@H](O)[C@@H](O[C@H]3O[C@H](CO)[C@@H](O)[C@H](N)[C@H]3O)[C@H](N)C[C@@H]2N)[C@H](O)[C@@H](O)[C@@H]1O` [Kanamycin], the MIC in the assay with S. aureus Mu50 (setting [2]) is 1000 µg/mL; in the assay with S. aureus Mu50 (setting [4]), more than 100 µM.

For `CCn1cc(C(=O)O)c(=O)c2cc(F)c(N3CCNCC3)cc21` [Norfloxacin], the MIC in the assay with S. aureus Mu50 (setting [2]) worked out at 250 µg/mL.

As to `CO[C@H]1/C=C/O[C@@]2(C)Oc3c(C)c(O)c4c(O)c(c(/C=N/N5CCN(C)CC5)c(O)c4c3C2=O)NC(=O)/C(C)=C\C=C\[C@H](C)[C@H](O)[C@@H](C)[C@@H](O)[C@@H](C)[C@H](OC(C)=O)[C@@H]1C` [Rifampicin], the MIC in the assay on S. aureus Mu50 (setting [2]) is more than 1000 µg/mL.

With `CN(C)[C@@H]1C(O)=C(C(N)=O)C(=O)[C@@]2(O)C(O)=C3C(=O)c4c(O)cccc4[C@@](C)(O)[C@H]3C[C@@H]12` [Tetracycline], the MIC is 200 µg/mL in the assay with S. aureus Mu50 (setting [1]), 62.5 µg/mL in the assay with S. aureus Mu50 (setting [2]), more than 100 µM in the assay on S. aureus Mu50 (setting [4]) and 0.1 µg/mL (≈ 0.225 µM) in the assay on B. anthracis Sterne.

With `CN[C@H](CC(C)C)C(=O)N[C@H]1C(=O)N[C@@H](CC(N)=O)C(=O)N[C@H]2C(=O)N[C@H]3C(=O)N[C@H](C(=O)N[C@H](C(=O)O)c4cc(O)cc(O)c4-c4cc3ccc4O)[C@H](O)c3ccc(c(Cl)c3)Oc3cc2cc(c3O[C@@H]2O[C@H](CO)[C@@H](O)[C@H](O)[C@H]2O[C@H]2C[C@](C)(N)[C@H](O)[C@H](C)O2)Oc2ccc(cc2Cl)[C@H]1O` [Vancomycin], the MIC in the assay on S. aureus Mu50 (MU50, read-out: Bacteriostatic MIC95, S. aureus Mu50) worked out at 5 µg/mL; with S. aureus Mu50 (MU50, read-out: Bacteriostatic effect MIC, S. aureus Mu50), 7.8 µg/mL; with S. aureus Mu50 (setting [4]) it was 5 µM; in the assay on B. anthracis Sterne it was 2.5 µg/mL (≈ 1.73 µM).

Regarding Gentamycin, in the assay with S. aureus Mu50, the “Bacteriostatic MIC95, S. aureus Mu50” value is more than 500 µg/mL. In the assay on B. anthracis Sterne (Table 2), the “Bacteriostatic MIC95, B. anthracis Sterne” value was found to be 5 µg/mL.

On to Polymyxin B, for which the “Bacteriostatic MIC95, S. aureus Mu50” value with S. aureus Mu50 amounted to 15 µg/mL. Besides, in the assay with S. aureus Mu50 (Table 10 and text of Example 4), the “Bacteriostatic effect MIC, S. aureus Mu50” value was 31.3 µg/mL. Moreover, the “Bacteriostatic MIC95, B. anthracis Sterne” value with B. anthracis Sterne (Table 2) came to 10 µg/mL.

A word on the IC50: it is the concentration at which inhibition is half-maximal.
